Measured values: patent publication US20250241848A1 (priority 2011, published 2025)

The compounds below were run on axillary sweat production. Settings: human, in vivo.
For CCCCCCCCCCCCCC(=O)OC(C)C [Isopropyl Myristate], the “greater effectiveness in reducing sweat production than placebo” value was 191%, the “greater reduction in sweat production than the subjects in the control group” value (from here on “greater reduction”) was 195% and the “reduction in sweat production (on average)” value (“reduction … (on average)” below) was 103 mg. The “subjects with at least a 30% reduction in sweat production compared to Baseline visit” value (“subjects with at least a 30% reduction” below) was 55%. For CCCOC(=O)c1ccc(O)cc1 [Propylparaben], the “greater effectiveness in reducing sweat production than placebo” value was 245%, the “greater reduction” value was 337% and the “reduction … (on average)” value was 177 mg. The “subjects with at least a 30% reduction” value was 70%. For Polysorbate 80, the “greater effectiveness in reducing sweat production than placebo” value was 280%, the “greater reduction” value was 300% and the “reduction … (on average)” value was 159 mg. The “subjects with at least a 30% reduction” value was 80%.
